AC50 and IC50 data for nine compounds are collected here from ChEMBL document CHEMBL1201862, “PubChem BioAssay data set” (2004).

Experiment [1] addresses Endoplasmic reticulum aminopeptidase 1 (Homo sapiens, UniProt Q9NZ08). Nature of the experiment: ERAP1 aminopeptidase inhibitors, dose response, biochemical, cherry-pick, set 2, plate reader (AID 743314).
Experiment [2] is described as follows: cytotoxicity in OVCAR8 ovarian cancer cells, dose response, PAX8 project, cell-based, plate reader, dry powder samples (AID 743197). Conditions: OVCAR-8. Format: functional.
Experiment [3] is described as follows: IGROV1 ovarian cancer cell cytotoxicity, dose response, PAX8 inhibitor project, plate reader, dry powder samples (AID 743043). Format: functional, cell-based. To be noted: IGROV-1.
A short description of experiment [4]: NIH:OVCAR-3 ovarian cancer cell cytotoxicity, dose response, PAX8 inhibitor project, plate reader, dry powder samples (AID 743044). Format: functional, cell-based.
Experiment [5] can be described thus: cells.
Experiment [6] deals with Major prion protein (Homo sapiens, UniProt P04156). In kind it is functional, cell-based.
Experiment [7] in a line: human group III sPLA2 inhibitors, dose response, biochemical, QFRET, IC50 (AID 743457).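 Note: green fluorescence rise as the enzyme cleaves BODIPY PC-A2 in liposomes; potency for inhibition of the enzyme.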
Experiment [8] is described as follows: A375 melanoma cell cytotoxicity, dose response, counter-screen for MITF inhibitor project, CellTiter-Glo luminescence, dry powder, set 2 (AID 624489).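 Note: actives are compounds lowering A375 viability meaning general cytotoxicity.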 To be noted: A-375. In kind it is functional, cell-based. For orientation: Counterscreens check selectivity or assay interference.
Experiment [9] in a line: A375 melanoma cell viability loss, dose response, counter-screen for MITF inhibitor project, CellTiter-Glo luminescence, dry powder, set 4 (AID 624364).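 Note: A375 melanoma cells are MITF independent so this is a counter screen.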 Conditions: A-375. In kind it is functional, cell-based.
Experiment [10] is described as follows: HepG2 cell cytotoxicity, dose response, cytotoxicity control, cherry-picked samples (AID 1159577). Format: functional, cell-based.
A short description of experiment [11]: P. falciparum Dd2 growth inhibitors, dose response, SYBR Green, cherry-picked samples (AID 1159567). Format: functional, cell-based.
Experiment [12] is described as follows: cytotoxicity toward HCT116 cells – cell-based, CellTiter-Glo luminescence, IC50, dose response (AID 1117332). Format: functional. Conditions: HCT-116. In general terms: Cellular ATP, detected with luciferase, serves as a proxy for viable cell number.
Experiment [13] is described as follows: SNU-C1 cell viability reduction, dose response, CellTiter-Glo luminescence (AID 1117323). In kind it is functional, cell-based.
A short description of experiment [14]: Concentration-dependent survival of SW480 colon cancer line, luminescence detection with CellTiter-Glo, half-maximal inhibitory concentration (AID 1117338). Format: functional.
A short description of experiment [15]: CellTiter-Glo luminescent dose response of DLD-1 viability loss (AID 1117352). Format: functional.
Experiment [16] in a line: cytotoxicity toward Colo320 cells – cell-based, CellTiter-Glo luminescence, IC50, dose response (AID 1117334). In kind it is functional. To be noted: COLO 320.
The nature of experiment [17]: HeLa 4N DNA content increase, dose response, cell-based, IC50 (AID 1117351). Format: functional.
Experiment [18] is described as follows: cytotoxicity toward HT-29 cells – cell-based, CellTiter-Glo luminescence, IC50, dose response (AID 1117330). In kind it is functional.
Experiment [19] in a line: RKO cell viability reduction, dose response, CellTiter-Glo luminescence (AID 1117322). In kind it is functional.
Experiment [20] in a line: HeLa 2N DNA content increase, dose response, cell-based, IC50 (AID 1117349). Format: functional.
The nature of experiment [21]: HCT116 cell viability decrease, GSK3B pretreatment – CellTiter-Glo, IC50, dose response (AID 1117339). Format: functional. Conditions: HCT-116.

Activity calls are given as the source filed them. Some results are limits rather than exact numbers.

Usually AC50 stands for the concentration giving half of the maximal activity seen. For the compound `O=c1ccc2cc(O[C@@H]3O[C@H](CO)[C@@H](O)[C@H](O)[C@H]3O)c(O)cc2o1`, in [1], the concentration at half-maximal activity (AC50) is 1.72 µM (active).
For `Cc1ccc(-c2ccc([C@@H]3[C@H](CO)N4CCCCN(C(=O)Nc5cccc(F)c5)C[C@@H]34)cc2)cc1`, the AC50 in experiment [2] was > 70 µM (inactive); in [3], 18.1 µM (active); in experiment [4], 7.83 µM (active).
As a reminder, the IC50 is the concentration that inhibits the measured activity by half. Consider `CCCCOc1ccc(C(=O)C2=C(O)C(=O)N(Cc3cccnc3)C2c2ccncc2)c(C)c1` (centres undefined), for which the IC50 was > 138 µM (inactive) in [5] and 4.21 µM (active) in [6].
In the case of `CCn1c(S)nnc1-c1cccn(Cc2ccc(Cl)cc2Cl)c1=O`, the IC50 in experiment [7] was > 122 µM (inactive).
On to `O=C(NC1=C(c2ccc(Oc3ccccc3)cc2)C(=O)c2ccccc2C1=O)c1ccccc1`, for which the AC50 in experiment [8] and in experiment [9] was > 70 µM (inactive) in each case.
For `Cc1cc(C(=O)NN=C(S)NC2CCCCC2)cs1`, in [7], the IC50 was > 122 µM (inactive).
For `CCCC#Cc1ccc([C@H]2[C@H](CO)N3CCCCN(CC4CCOCC4)C[C@@H]23)cc1`, the AC50 is 26.9 µM (active) in experiment [10] and 3.68 µM (active) in experiment [11].
For the compound `Cc1nc(SCC(=O)NNC(=O)c2ccc(F)cc2)c2ccccc2n1`, the IC50 in [5] was > 138 µM (inactive); in [6], 2.26 µM (active).
With `O=[N+]([O-])c1ccc(Oc2ccc(N=C=S)cc2)cc1` [NITROSCANATE], the concentration for half-maximal inhibition (IC50) in experiment [12] was 2.77 µM (active); in [13] it was 4.33 µM (active); in [14], 1.63 µM (active); in experiment [15], 2.1 µM (active); in experiment [16] it was 1.46 µM (active); in experiment [17], > 10 µM (inactive). Besides, the IC50 was 1.07 µM (active) in [18], 2.34 µM (active) in [19], > 10 µM (inactive) in [20] and 1.47 µM (active) in [21].
